Counter-ions that a name gives are not always drawn. Like-named read-outs stand apart in the source and are kept apart here.
Target: T1, serotonin 4 receptor (5-HT4) (Cavia porcellus, UniProt O70528)
T1 construct: from tissue; host or cells: longitudinal muscle strips of guinea pig ileum (Harley guinea pigs)
Assay: Stimulating activity on serotonin 4 receptor (twitch response in guinea pig ileum)
Format: cell-based
Protocol: Stimulating activity on serotonin 4 receptor
From Harley guinea pigs weighing 250 to 400 g, a section of ileum 10 to 20 cm proximal to the ileocecal junction was removed. Longitudinal muscle strips obtained from the ileum were used for this assay. The preparations were suspended in Krebs' solution at 32 to 34° C., bubbled continuously with 95% O2 and 5% CO2, and subjected to initial tension of about 0.8 g. Responses were recorded isometrically. Twitch responses were evoked by electrical stimulation (0.2 Hz, 1 msec pulse duration). The preparations were stimulated at supramaximal voltage for 2 to 3 hours, and were then allowed to equilibrate for about 1 hour at submaximal voltage. […] The preparations were left for at least 45 minutes before cumulative addition of each agonist.
The quinolinecarboxylic acid derivatives of the present invention were employed as sample compounds. For comparison, the following compounds were employed. These compounds were diluted by dissolving them in distilled water or in DMSO.
The data obtained was analyzed by RS1 (BBN Software Product Co.).

[1] = twitch response in guinea pig ileum, maximum contraction of sample compound = 100%, read-out: ED50 (concentration enhancing the twitch response by 50%)

T1 sequence (O70528 whole entry): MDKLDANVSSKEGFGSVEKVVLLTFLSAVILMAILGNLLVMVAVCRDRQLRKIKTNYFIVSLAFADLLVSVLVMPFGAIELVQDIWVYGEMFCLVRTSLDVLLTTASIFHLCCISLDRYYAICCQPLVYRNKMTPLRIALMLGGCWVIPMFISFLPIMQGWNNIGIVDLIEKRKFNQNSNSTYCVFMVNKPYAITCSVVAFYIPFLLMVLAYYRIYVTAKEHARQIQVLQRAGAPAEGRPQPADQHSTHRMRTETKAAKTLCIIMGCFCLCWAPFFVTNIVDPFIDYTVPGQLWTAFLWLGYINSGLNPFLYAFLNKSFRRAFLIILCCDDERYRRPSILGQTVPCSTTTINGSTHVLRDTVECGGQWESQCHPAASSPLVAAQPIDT

SMILES | EC50 | EC50 [1]
CCOC(=O)CCCN1[C@@H]2CC[C@H]1C[C@@H](OC(=O)c1cc3ccccc3n(C(C)C)c1=O)C2 [Compound 51, Endo-8-(3-(ethoxycarbonyl)propyl)-8-azabicyclo[3.2.1]oct-3-yl 1-isopropyl-2-oxo-1,2-dihydro-3-quinolinecarboxylate hydrochloride] | 23 nM | –
CC(C)n1c(=O)c(C(=O)OC2CC3CCC(C2)N3CCCCCO)cc2ccccc21 (stereo not drawn) [Compound 40, Endo-8-(5-hydroxypentyl)-8-azabicyclo[3.2.1]oct-3-yl 1-isopropyl-2-oxo-1,2-dihydro-3-quinolinecarboxylate hydrochloride] | 25.5 nM | –
CCOC(=O)CCCN1C2CCC1CC(NC(=O)c1cc3ccccc3n(C(C)C)c1=O)C2 (stereo not drawn) [Compound 27, Endo-N-(8-(3-(ethoxycarbonyl)propyl)-8-azabicyclo[3.2.1]oct-3-yl)-1-isopropyl-2-oxo-1,2-dihydro-3-quinolinecarboxamide hydrochloride] | 19.3 nM | –
CC(C)n1c(=O)c(C(=O)OC2CC3CCC(C2)N3CCO)cc2ccccc21 (stereo not drawn) [Compound 37, Endo-8-(2-hydroxyethyl)-8-azabicyclo[3.2.1]oct-3-yl 1-isopropyl-2-oxo-1,2-dihydro-3-quinolinecarboxylate hydrochloride] | 16.1 nM | –
CC(C)n1c(=O)c(C(=O)NC2CC3CCC(C2)N3CCC#N)cc2ccccc21 (stereo not drawn) [Compound 33, Endo-N-(8-(2-cyanoethyl)-8-azabicyclo[3.2.1]oct-3-yl)-1-isopropyl-2-oxo-1,2-dihydro-3-quinolinecarboxamide] | 35.8 nM | –
C=CCN1C2CCC1CC(NC(=O)c1cc3ccccc3n(C(C)C)c1=O)C2 (stereo not drawn) [Compound 1, endo-N-(8-(2-propenyl)-8-azabicyclo[3.2.1]oct-3-yl)-1-isopropyl-2-oxo-1,2-dihydro-3-quinolinecarboxamide] | 59.2 nM | –
CC(=O)CN1C2CCC1CC(NC(=O)c1cc3ccccc3n(C(C)C)c1=O)C2 (stereo not drawn) [Compound 30, Endo-N-(8-(2-oxopropyl)-8-azabicyclo[3.2.1]oct-3-yl)-1-isopropyl-2-oxo-1,2-dihydro-3-quinolinecarboxamide hydrochloride] | 11.5 nM | –
CSCCN1C2CCC1CC(NC(=O)c1cc3ccccc3n(C(C)C)c1=O)C2 (stereo not drawn) [Compound 17, Endo-N-(8-(2-(methylthio)ethyl)-8-azabicyclo[3.2.1]oct-3-yl)-1-isopropyl-2-oxo-1,2-dihydro-3-quinolinecarboxamide] | 48 nM | –
CC(C)n1c(=O)c(C(=O)NC2CC3CCC(C2)N3CC2CCCCO2)cc2ccccc21 (stereo not drawn) [Compound 22, Endo-N-(8-(tetrahydropyran-2-methyl)-8-azabicyclo[3.2.1]oct-3-yl)-1-isopropyl-2-oxo-1,2-dihydro-3-quinolinecarboxamide] | 24 nM | –
CSCCN1[C@@H]2CC[C@H]1C[C@@H](OC(=O)c1cc3ccccc3n(C(C)C)c1=O)C2 [Compound 45, Endo-8-(2-(methylthio)ethyl)-8-azabicyclo[3.2.1]oct-3-yl 1-isopropyl-2-oxo-1,2-dihydro-3-quinolinecarboxylate] | 29.5 nM | –
CC(=O)CCCN1C2CCC1CC(NC(=O)c1cc3ccccc3n(C(C)C)c1=O)C2 (stereo not drawn) [Compound 31, Endo-N-(8-(4-oxopentyl)-8-azabicyclo[3.2.1]oct-3-yl)-1-isopropyl-2-oxo-1,2-dihydro-3-quinolinecarboxamide] | 52.3 nM | –
CC(C)n1c(=O)c(C(=O)OC2CC3CCC(C2)N3CCCCO)cc2ccccc21 (stereo not drawn) [Compound 39, Endo-8-(4-hydroxybutyl)-8-azabicyclo[3.2.1]oct-3-yl 1-isopropyl-2-oxo-1,2-dihydro-3-quinolinecarboxylate hydrochloride] | 16.6 nM | –
CC(=O)OCCCCCN1C2CCC1CC(NC(=O)c1cc3ccccc3n(C(C)C)c1=O)C2 (stereo not drawn) [Compound 9, Endo-N-(8-(5-acetoxypentyl)-8-azabicyclo[3.2.1]oct-3-yl)-1-isopropyl-2-oxo-1,2-dihydro-3-quinolinecarboxamide hydrochloride] | 33 nM | –
CC(C)n1c(=O)c(C(=O)O[C@H]2C[C@H]3CC[C@@H](C2)N3CCCCCCO)cc2ccccc21 [Compound 41, Endo-8-(6-hydroxyhexyl)-8-azabicyclo[3.2.1]oct-3-yl 1-isopropyl-2-oxo-1,2-dihydro-3-quinolinecarboxylate hydrochloride] | 50.9 nM | –
CC(C)n1c(=O)c(C(=O)O[C@H]2C[C@H]3CC[C@@H](C2)N3CC(N)=O)cc2ccccc21 [Compound 56, Endo-8-carbamoylmethyl-8-azabicyclo[3.2.1]oct-3-yl 1-isopropyl-2-oxo-1,2-dihydro-3-quinolinecarboxylate] | 31.4 nM | –
CCOCCN1[C@@H]2CC[C@H]1C[C@@H](OC(=O)c1cc3ccccc3n(C(C)C)c1=O)C2 [Compound 43, Endo-8-(2-ethoxyethyl)-8-azabicyclo[3.2.1]oct-3-yl 1-isopropyl-2-oxo-1,2-dihydro-3-quinolinecarboxylate hydrochloride] | 15.2 nM | –

SMILES | EC50 | EC50 [1]
CC(C)n1c(=O)c(C(=O)O[C@H]2C[C@H]3CC[C@@H](C2)N3CCC#N)cc2ccccc21 [Compound 55, Endo-8-(2-cyanoethyl)-8-azabicyclo[3.2.1]oct-3-yl 1-isopropyl-2-oxo-1,2-dihydro-3-quinolinecarboxylate] | 27.3 nM | –
COCCOCCN1[C@@H]2CC[C@H]1C[C@@H](OC(=O)c1cc3ccccc3n(C(C)C)c1=O)C2 [Compound 59, Endo-8-(2-(2-methoxyethoxy)ethyl)-8-azabicyclo[3.2.1]oct-3-yl 1-isopropyl-2-oxo-1,2-dihydro-3-quinolinecarboxylate hydrochloride] | 73.7 nM | –
CCN(CC)CCN1[C@@H]2CC[C@H]1C[C@@H](OC(=O)c1cc3ccccc3n(C(C)C)c1=O)C2 [Compound 44, Endo-8-(2-diethylaminoethyl)-8-azabicyclo[3.2.1]oct-3-yl 1-isopropyl-2-oxo-1,2-dihydro-3-quinolinecarboxylate dihydrochloride] | 72.6 nM | –
COCCN1[C@@H]2CC[C@H]1C[C@@H](OC(=O)c1cc3ccccc3n(C(C)C)c1=O)C2 [Compound 42, Endo-8-(2-methoxyethyl)-8-azabicyclo[3.2.1]oct-3-yl 1-isopropyl-2-oxo-1,2-dihydro-3-quinolinecarboxylate hydrochloride] | 18.4 nM | –
CC(C)n1c(=O)c(C(=O)NC2CC3CCC(C2)N3CC(=O)O)cc2ccccc21 (stereo not drawn) [Compound 26, Endo-N-(8-(carboxymethyl)-8-azabicyclo[3.2.1]oct-3-yl)-1-isopropyl-2-oxo-1,2-dihydro-3-quinolinecarboxamide] | 66.1 nM | –
CC(C)n1c(=O)c(C(=O)NC2CC3CCC(C2)N3CCCCO)cc2ccccc21 (stereo not drawn) [Compound 6, Endo-N-(8-(4-hydroxybutyl)-8-azabicyclo[3.2.1]oct-3-yl)-1-isopropyl-2-oxo-1,2-dihydro-3-quinolinecarboxamide] | 38.5 nM | –
CC(C)n1c(=O)c(C(=O)NC2CC3CCC(C2)N3CC(N)=O)cc2ccccc21 (stereo not drawn) [Compound 34, Endo-N-(8-carbamoylmethyl-8-azabicyclo[3.2.1]oct-3-yl)-1-isopropyl-2-oxo-1,2-dihydro-3-quinolinecarboxamide] | 61.9 nM | –
CN1[C@@H]2CC[C@H]1C[C@@H](NC(=O)c1cc3ccccc3[nH]c1=O)C2 [Comparative Compound 2, reference compound] | – | > 3000 nM
CC(C)n1c(=O)c(C(=O)NC2CC3CCC(C2)N3CCCCCCO)cc2ccccc21 (stereo not drawn) [Compound 8, Endo-N-(8-(6-hydroxyhexyl)-8-azabicyclo[3.2.1]oct-3-yl)-1-isopropyl-2-oxo-1,2-dihydro-3-quinolinecarboxamide hydrochloride] | 62.3 nM | –
CC(C)n1c(=O)c(C(=O)O[C@H]2C[C@H]3CC[C@@H](C2)N3c2nccs2)cc2ccccc21 [Compound 58, endo-8-(2-thiazolyl)-8-azabicyclo[3.2.1]oct-3-yl 1-isopropyl-2-oxo-1,2-dihydro-3-quinolinecarboxylate hydrochloride, reference compound] | – | 1140 nM
CC(C)n1c(=O)c(C(=O)O[C@H]2C[C@H]3CC[C@@H](C2)N3CC2CCCCO2)cc2ccccc21 (stereo partly drawn) [Compound 48, Endo-8-(tetrahydropyran-2-methyl)-8-azabicyclo[3.2.1]oct-3-yl 1-isopropyl-2-oxo-1,2-dihydro-3-quinolinecarboxylate hydrochloride] | 55.9 nM | –
COc1ccc(N2[C@@H]3CC[C@H]2C[C@@H](OC(=O)c2cc4ccccc4n(C(C)C)c2=O)C3)cc1 [Compound 57, endo-8-(4-methoxyphenyl)-8-azabicyclo[3.2.1]oct-3-yl 1-isopropyl-2-oxo-1,2-dihydro-3-quinolinecarboxylate, reference compound] | – | > 3000 nM
CCCCn1c(=O)c(C(=O)N[C@H]2C[C@H]3CC[C@@H](C2)N3C)c(O)c2ccccc21 [Comparative Compound 4, reference compound] | – | > 3000 nM
CC(C)n1c(=O)c(C(=O)NC2CC3CCC(C2)N3CCS(=O)(=O)c2ccccc2)cc2ccccc21 (stereo not drawn) [Compound 19, Endo-N-(8-(2-(phenylsulfonyl)ethyl)-8-azabicyclo[3.2.1]oct-3-yl)-1-isopropyl-2-oxo-1,2-dihydro-3-quinolinecarboxamide] | 86.6 nM | –
CC(=O)CCCN1[C@@H]2CC[C@H]1C[C@@H](OC(=O)c1cc3ccccc3n(C(C)C)c1=O)C2 [Compound 53, Endo-8-(4-oxopentyl)-8-azabicyclo[3.2.1]oct-3-yl 1-isopropyl-2-oxo-1,2-dihydro-3-quinolinecarboxylate hydrochloride] | 26.4 nM | –
